The text below walks through data of patent US5292498A, “Method of treating lung disease with uridine triphosphates” (The University of North Carolina At Chapel Hill, priority 1991, dated 1994).

SMILES strings stand for the structures.

For assay [1], the system named is normal human nasal epithelial cells. Description: Intracellular calcium [Ca^2+ ]i in single normal human nasal epithelial cells (Fura-2). The assay is classed as cell-based. The procedure:
(§1) Freshly excised human nasal epithelium from normal or cystic fibrosis subjects was grown in primary culture in F-12, hormone-supplemented medium in accordance with known procedures. See R. Wu et al., Am. Rev. Respir. Dis. 132, 311-320 (1985). For [Ca^2+ ]i measurements, cultures were grown on non-fluorescent vitrogen substrates on glass coverslips. Cultures for electrophysiologic studies were grown to confluence on permeable collagen matrix supports (CMS), allowing addition of agonists to the basolateral or apical surface of the epithelial sheet.
Primary human nasal epithelial cells grown to confluence on vitrogen coated coverslips were loaded with a final concentration of 3 μM Fura-2/AM at 37° C. for 30 minutes. The cells were then washed in NaCl Ringer and mounted in a chamber for measurements of fluorescence. To reduce the rate of leakage of Fura-2 from the cell into the extracellular space and avoid time-dependent compartmentalization of the probe, all measurements of [Ca^2+ ]i were performed at 25° C. At this temperature,no vesicular bright spots indicative of compartmentalization of the probe were observed.
Measurements of [Ca^2+ ]i in single human nasal epithelial cells were obtained with a modular microspectrofluorimeter (SPEX Industries, Inc., Edison, N.J.) attached to a Zeiss Axiovert IM 35 microscope. The system was equipped with a xenon lamp, beam splitter, two monochromators and a rotating chopper mirror that permitted excitation of cell fluorescence at alternating wavelengths of 340 and 380 nm (emission ≥450 nm). The fluorescent signal from a single cell was measured with a photometer equipped with a pinhole (spot diameter of 3-5 μm) that excluded signals from adjacent cells.
After agonist was added, the fluorescent signal was quenched by a NaCl ringer solution containing 1.5×10^-4 M digitonin and 10^-3 M MnCl2. The remaining signal at each excitation wavelength, equivalent to the background fluorescence in non loaded cells, was subtracted from data from Fura-2/AM loaded cells before the ratio (340 nm/380 nm) was taken. The 340 nm/380 nm ratio was converted to an actual [Ca^2+ ]i measurement by using the external calibration standards and the formula derived by G. Grynkiewicz et al., J. Biol. Chem. 260, 3440-3450 (1985), used with dual wavelength measurements: [Ca^2+ ]i =K [(Rx --Ro)/(Rs --Rx)], with Ro and Rs representing the ratios at 0 Ca^2+ and saturating Ca^2+, respectively. Rx represents the experimental ratio.
To investigate whether changes in [Ca^2+ ]i might be related to regulation of ion transport, receptor characterization was performed by measuring changes in [Ca^2+ ]i in response to a number of nucleotide drugs. Concentration-effect curves for agonists active at P2x, P2y subtype or UTP sensitive receptors and other purine or pyrimidine receptor agonists were generated, measuring mean change in [Ca^2+ ]i in response to agonist concentration. Data are shown in FIG. 3, which gives log concentration-effect relationships of purinergic and pyrimidinergic compounds on [Ca^2+ ]i (mean change in [Ca^2+ ]i over basal levels).

In assay [2] the test system is normal human nasal epithelium. Description: Bioelectric studies (short circuit current, Isc) of normal human nasal epithelium in Ussing chambers. The assay is classed as cell-based. The protocol:
as §1
Confluent monolayers of primary human nasal epithelium were mounted in modified Ussing chambers in accordance with known procedures. See, e.g., R. Boucher et al., J. Physiol. (Lond.) 405, 77-103 (1988); M. Knowles et al., Science 221, 1067-1070 (1983). The studies described below were performed under short circuit current conditions at 37° C., and in some studies, amiloride was added to the apical bath (10^-4 M) to block transepithelial sodium transport. Changes in transepithelial potential difference (Vt), resistance (Rt) and short circuit current (Isc) were measured in response to addition of various nucleotides. Each cultured preparation was exposed to only one concentration of an agonist on either the basolateral or apical surface to avoid the tachyphylaxis observed in preliminary cumulative dose response studies. To construct concentration-effect relationships of responses to nucleotides, it was assumed that the same maximum response to an agonist could be induced from each tissue culture preparation from the same individual.
The effects of extracellular ATP on normal human nasal epithelium were investigated employing bioelectric measurements of ion transport activity when the nucleotide was applied to either the apical or basolateral membrane. […] In general, the change in Isc induced by application of ATP to the apical or the basolateral side returned to baseline or below within 5 minutes after addition of agonist. […] Apical pretreatment with amiloride (10^-4 M) removes active Na^+ absorption as a component of the Isc so that the residual Isc reflects a Cl^- secretory current (R. Boucher et al., J. Clin. Invest. 78, 1245-1252 (1986); N. Willumsen et al., Am. J. Physiol. 256, C1033-C1044 (1989)).
A concentration-effect relationship was found when ATP was applied to normal human nasal epithelium under basal conditions (data not shown). Comparisons were made between responses of tissues from different donors based on the peak change in Isc following ATP application. The curve describes the mean peak change in Isc in response to log increasing concentrations of ATP applied to the apical or basolateral surface.
Concentration-effect relationships were also found for ATP applied to the apical or basolateral membrane of amiloride-pretreated tissues (data not shown). Again, the nucleotide's effect on ion transport was examined as the mean peak change in Isc after ATP application.
The purinergic receptor subtype(s) linked to regulation of ion transport of human nasal epithelium were characterized by obtaining concentration-effect relationships for a variety of purine and pyrimidine agonists in preparations derived from normal and CF patients. We characterized receptor subtype(s) on the […] surface by measuring nucleotide effect on basal Na^+ transport rates. Because therapies designed to induce Cl^- secretion might best be delivered by the aerosol route, receptor subtype characterization on the apical barrier was performed in the presence of amiloride. The effect of extracellular nucleotides on ion transport is reported as the percent change in Isc from control values when applied to the basolateral or apical surface of the culture. Basal pre-agonist currents were similar for tissues in each concentration group.

For the compound `Nc1ncnc2c1ncn2[C@@H]1O[C@H](COP(=O)(O)OP(=O)(O)OP(=O)(O)O)[C@@H](O)[C@H]1O` [ATP, adenosine triphosphate], in assay [1] (Ca^2+ -free medium), the “[Ca^2+ ]i response in Ca^2+ -free medium” value is “initial sharp increase in [Ca^2+ ]i” and the “time for [Ca^2+ ]i to return to baseline” value is recorded as “two”. Also, the “effectiveness for raising [Ca^2+ ]i” value in assay [1] (concentration-effect curves, FIG. 3) is listed as “most effective agonists”. For the same compound, the “[Ca^2+ ]i response” value in assay [1] (extracellular application, Ca^2+ -containing solution) was “immediate increase in [Ca^2+ ]i levels”. The “plateau phase on return to Ca^2+ -containing solution” value in assay [1] (return of cells to Ca^2+ -containing solution) is “restoration of the plateau phase”. Further, the “increase in Isc at 10^-3 M” value in assay [2] (10^-3 M, basolateral membrane (not seen with apical application), basal conditions) is given as “A large increase in Isc”. The “change in Isc on application to either surface” value in assay [2] (ATP, apical or basolateral surface, no amiloride) is given as “rapidly stimulated an increase in Isc”. Further, in assay [2] (ATP, apical or basolateral, basal conditions), the “time for change in Isc to return to baseline or below” value was ≤ 5 min. The Emax in assay [2] (Homo sapiens, read-out: maximum mean % change in Isc) was 51 ± 8%. In assay [2] (amiloride-pretreated tissues), the “Cl^- secretory response” value is reported as “A typical Cl^- secretory response” and the “change in ion transport, amiloride-pretreated versus basal state” value is given as “routinely smaller than that observed in tissues in the basal state”. In addition, the “character of log concentration-effect curves” value in assay [2] (amiloride-treated tissues, apical or basolateral) is recorded as “sigmoidal in character”. In addition, the “duration of prolonged increase in Isc above baseline” value in assay [2] (apical surface following amiloride pretreatment, most tissues) was > 10 min. In addition, the “rank order of potency for Cl^- secretion” value in assay [2] (apical surface, amiloride-pretreated, FIG. 2) is listed as “ATP≥UTP>ATPγS>ADP>2MeSATP>ADPβS”. Besides, in assay [2] (basal conditions, 10^-7 to 10^-4 M), the “effectiveness, apical versus basolateral” value is “approximately equal”. In addition, the “time for ATP induced increase in Isc to return to baseline” value in assay [2] (basolateral addition, amiloride-pretreated) was ≤ 5 min. Moreover, the “character of concentration-effect curve including 10^-3 M” value in assay [2] (basolateral surface, 10^-3 M drug considered) is reported as “biphasic in character”. Besides, the “character of log concentration-effect curve” value in assay [2] (basolateral surface, 10^-7 to 10^-4 M) was “sigmoidal character”. Besides, in assay [2] (basolateral surface, FIG. 1), the “rank order of potency for increase in Isc” value is recorded as 2MeSATP>UTP≥ATP>ATPγS>ADP>ADPβS. Further, in assay [2] (following ATP), the “oscillations in Isc” value is given as “frequently observed”.
